In patent US20210230526A1, “Cell enclosure device and use for same” (National Agriculture and Food Research Organization, priority 2016, published 2021):

Test system: HepG2 cells
Assay: Metabolism of model drug (fluorescein diacetate) by HepG2 cell hepatic tissue-type chip and excretion and accumulation of metabolites to bile canaliculus-like structure
Format: in vitro ADME, human
Conditions: for distribution of fluorescein metabolized by HepG2 cells (green fluorescence): 1 hour uptake, after washing twice
Procedure: (1) A culture medium containing fluorescein diacetate (FD) as a model drug at a concentration of 250 μg/mL was prepared, and 5 mL thereof was poured into a dish (60 mm in diameter ).
(2) Next, the hepatic tissue-type chip on day 7 of culturing produced using HepG2 cells in Example 1 was immersed in the FD-containing culture medium prepared in (1) and cultured for 1 hour, such that the FD was taken into the cells.
(3) Next, the chip was transferred into a new dish (diameter: 60 mm), into which 5 mL of Hank's Balanced Salt Solution (HBSS) was poured, and washed.
(4) Next, the hepatic tissue-type chip was transferred into a new dish (diameter 60 mm ) into which 5 mL of a fresh culture medium was poured, immersed in the culture medium, and cultured for 1 hour. The discharging of fluorescein in the cells after 1 hour was confirmed by observation with a phase contrast microscope and a fluorescence microscope (refer to FIG. 8(A) to FIG. 8(C)).
(1) HBSS containing fluorescein diacetate (FD) as a model drug at a concentration of 25 μg/mL was prepared, and 5 mL thereof was poured into a dish (60 mm in diameter).
(2) Next, on day 32 of culturing, the hepatic tissue-type chip produced using HepG2 cells in Example 3 was immersed in the FD-containing HBSS prepared in (1) and cultured for 1 hour such that the FD was taken into the cells.
(3) Next, the result was transferred into a new dish (diameter 60 mm) into which 5 mL of HBSS was poured, and washed.
(4) Next, the hepatic tissue-type chip was transferred into a new dish (diameter 60 mm) into which 5 mL of fresh HBSS was poured, immersed in HBSS, and cultured for 1 hour. The discharge of fluorescein in the cells after 1 hour was confirmed by observation with a phase contrast microscope and a fluorescence microscope (refer to FIG. 12A (phase contrast microscope image) and FIG. 12B (fluorescence microscope image)). […]

distribution of fluorescein metabolized by HepG2 cells (green fluorescence) (Example 2, chip on day 7 of culturing, FD 250 μg/mL in culture medium): uniformly distributed in the cytoplasm | distribution of fluorescein metabolized by HepG2 cells (green fluorescence) (Example 4, chip on day 32 of culturing, FD 25 μg/mL in HBSS): uniformly distributed in the cytoplasm | distribution of fluorescein metabolized by HepG2 cells (green fluorescence) (Example 10, chip on day 35 of culturing, FD 25 μg/mL in HBSS): uniformly distributed in the cytoplasm
SMILES: O=C1OC2(c3ccc(O)cc3Oc3cc(O)ccc32)c2ccccc21 [fluorescein]
excretion of fluorescein from the cells (Example 2, chip on day 7 of culturing, 1 hour further culture in fresh culture medium after washing): excreted and accumulated in the bile canaliculus-like structure | excretion of fluorescein from the cells (Example 4, chip on day 32 of culturing, 1 hour further culture in fresh HBSS after washing): excreted and accumulated in the bile canaliculus-like structure | excretion of fluorescein from the cells (Example 10, chip on day 35 of culturing, 1 hour further culture in fresh HBSS after washing): excreted and accumulated in the bile canaliculus-like structure
